# Results: BindingDB's records for doi:10.1016/j.bmcl.2007.02.059 (Johnson & Johnson Pharmaceutical Research & Development, 2007)
# Key:
# [1] = Inhibition of human Rsk3
# [2] = Inhibition of human Rsk2
smiles,measurement,setting,value
CN(C)c1nc2ccc1CCCn1cc(c3ccccc31)C1=C(C(=O)NC1=O)c1cn(c3ccccc13)CC2,IC50,[1],48 nM
same,IC50,[2],850 nM
